This assay addresses rabbit platelet PDE V (Oryctolagus cuniculus, UniProt G1SX67). Put plainly: PDE V inhibition, PDE SPA assay kit with [3H]-cGMP. The format is biochemical. As for the experimental part: The rabbit platelet PDE V was prepared using the method described by Hidaka et al. (Biochim. Biophys. Acta., 429: 485 - 497, 1976) with minor modification. The plateletrich plasma (PRP) was prepared by centrifugation of freshly obtained heparinized whole blood at 360 g. Platelets were isolated from the PRP by centrifugation at 1,200 g. Platelet homogenates were prepared in the homogenization buffer (50 mM Tris-HCl buffer containing 1 mM MgCl2, pH 7.4) by sonication for 30 s per 1 mL. The homogenized solutions were then centrifuged at 40,000 × g for 2 h at 4 °C. The supernatant was loaded on the DEAE-cellulose column (20 mL bed volume, Sigma) pre-equilibrated with equilibration buffer (50 mM Tris-acetate containing 3.75 mM 2-mercaptoethanol, pH 6.0). The column was then washed with 60 mL of equilibration buffer. The PDE isozymes were eluted using a continuous gradient of 0 to 600 mM sodium acetate in the equilibration buffer (60 mL total volume). The 1.0 mL fractions were collected. A flow rate of 60 mL/h was used throughout the ion-exchange chromatography procedure. PDE activities on cAMP and cGMP were characterized as described below. The characterized fractions were pooled and stored at -80 °C until the inhibition studies.
The cyclic nucleotide PDE V activity was determined using PDE SPA assay kit (Amersham Pharmacia biotech, UK). Each reaction mixture (100 µL total volume) consisted of the column elute containing PDE V (10 µL), [^3H]-cGMP (5 µCi/mL), bovine serum albumin (0. 5 mg/mL), and MgCl2 (5 mM) in Tris-HCl buffer (15 mM, pH 7. 5). The reactions were initiated by the addition of PDE V and the samples were incubated at 30 °C for 30 min, after which the reaction was stopped by the addition of 50 µL of SPA beads. The reaction tube was then settled for 20 min and was counted on the scintillation counter (Tri-carb 1500, Packard, USA). For the inhibition study of PDE V activity, the test compounds were dissolved in dimethyl sulfoxide (DMSO) and was diluted with distilled water. The final concentration of DMSO was less than 0. 2% (v/v).

Where [1] appears, read: in vitro inhibition of cGMP PDE V, 30 °C, 30 min, read-out: IC50.

The structures appear in SMILES notation. Like-named read-outs stand apart in the source and are kept apart here.

By IC50 is commonly meant the concentration that gives 50% inhibition. Turning to `CCCOc1ccc(S(=O)(=O)N2CCN(CCOC(=O)Cc3ccccc3)CC2)cc1-c1nc2c(CCC)cn(CC)c2c(=O)[nH]1` [Example 24, 5-Ethyl-2-{5-[4-(2-phenylacetoxyethyl)piperazin-1-ylsulfonyl]-2-n-propoxyphenyl}-7-n-propyl-3,5-dihydro-4H-pyrrolo[3,2-d]pyrimidin-4-one], it took 8.68 nM to reach half-maximal inhibition (IC50).

On to `CCCOc1ccc(S(=O)(=O)N2CCN(CCOC(=O)OCC)CC2)cc1-c1nc2c(CCC)cn(CC)c2c(=O)[nH]1` [Example 17, 2-{5-[4-(2-Ethoxycarbonyloxyethyl)piperazin-1-ylsulfonyl]-2-n-propoxyphenyl}-5-ethyl-7-n-propyl-3,5-dihydro-4H-pyrrolo[3,2-d]pyrimidin-4-one], for which the IC50 under setting [1] came to 7.65 nM.

For `CCCOc1ccc(S(=O)(=O)N2CCN(CCOC(=O)c3ccccc3)CC2)cc1-c1nc2c(CCC)cn(CC)c2c(=O)[nH]1` [Example 16, 2-{5-[4-(2-Benzoyloxyethyl)piperazin-1-ylsulfonyl]-2-n-propoxyphenyl}-5-ethyl-7-n-propyl-3,5-dihydro-4H-pyrrolo[3,2-d]pyrimidin-4-one], the half-inhibitory concentration (IC50) under setting [1] amounted to 14.4 nM.

Regarding `CCCOc1ccc(S(=O)(=O)N2CCN(CCOC(=O)CCC)CC2)cc1-c1nc2c(CCC)cn(CC)c2c(=O)[nH]1` [Example 12, 2-{5-[4-(2-Butyryloxyethyl)piperazin-1-ylsulfonyl]-2-n-propoxyphenyl}-5-ethyl-7-n-propyl-3,5-dihydro-4H-pyrrolo[3,2-d]pyrimidin-4-one], the concentration for half-maximal inhibition (IC50) under setting [1] came to 8.87 nM.

In the case of `CCCOc1ccc(S(=O)(=O)N2CCN(CCOC(C)=O)CC2)cc1-c1nc2c(CCCF)cn(CC)c2c(=O)[nH]1` [Example 19, 2-{5-[4-(2-Acetoxyethyl)piperazin-1-ylsulfonyl]-2-n-propoxyphenyl}-5-ethyl-7-(3-fluoropropyl)-3,5-dihydro-4H-pyrrolo[3,2-d]pyrimidin-4-one], the IC50 under setting [1] came to 1.48 nM.

`CCCOc1ccc(S(=O)(=O)N2CCN(CCOC(C)=O)CC2)cc1-c1nc2c(CCC)cn(CC)c2c(=O)[nH]1` [Example 7, 2-{5-[4-(2-Acetoxyethyl)piperazin-1-ylsulfonyl]-2-n-propoxyphenyl}-5-ethyl-7-n-propyl-3,5-dihydro-4H-pyrrolo[3,2-d]pyrimidin-4-one]: under setting [1], the IC50 was found to be 2.84 nM.

As for `CCCOc1ccc(S(=O)(=O)N2CCN(CCOC(=O)C(C)C)CC2)cc1-c1nc2c(CCC)cn(CC)c2c(=O)[nH]1` [Example 14, 5-Ethyl-2-{5-[4-(2-isobutyryloxyethyl)piperazin-1-ylsulfonyl]-2-n-propoxyphenyl}-7-n-propyl-3,5-dihydro-4H-pyrrolo[3,2-d]pyrimidin-4-one], the IC50 under setting [1] is 8.8 nM.

Consider `CCCOc1ccc(S(=O)(=O)N2CCN(CCOC(=O)CC)CC2)cc1-c1nc2c(CCC)cn(CC)c2c(=O)[nH]1` [Example 10, 5-Ethyl-2-{5-[4-(2-propionyloxyethyl)piperazin-1-ylsulfonyl]-2-n-propoxyphenyl}-7-n-propyl-3,5-dihydro-4H-pyrrolo[3,2-d]pyrimidin-4-one], for which the IC50 under setting [1] was 5.73 nM.
